Laboratory results as given in US20240270762A1, “PENICILLIN-BINDING PROTEIN INHIBITORS” (priority 2021, published 2024).
Read-outs that look alike come from different tables or passages of the source.

What was measured:
[1] = molecular target: T1, PBP3 from Acinetobacter baumannii (ATCC 19606) (Acinetobacter baumannii, UniProt A0ABX6CK25); test: Bocillin-FL fluorescence polarization competition binding, A. baumannii PBP3; conditions: fluorescence polarization competition binding assay using Bocillin-FL; read-out: A. baumannii PBP3 Potency
T1 sequence (A0ABX6CK25 64-610): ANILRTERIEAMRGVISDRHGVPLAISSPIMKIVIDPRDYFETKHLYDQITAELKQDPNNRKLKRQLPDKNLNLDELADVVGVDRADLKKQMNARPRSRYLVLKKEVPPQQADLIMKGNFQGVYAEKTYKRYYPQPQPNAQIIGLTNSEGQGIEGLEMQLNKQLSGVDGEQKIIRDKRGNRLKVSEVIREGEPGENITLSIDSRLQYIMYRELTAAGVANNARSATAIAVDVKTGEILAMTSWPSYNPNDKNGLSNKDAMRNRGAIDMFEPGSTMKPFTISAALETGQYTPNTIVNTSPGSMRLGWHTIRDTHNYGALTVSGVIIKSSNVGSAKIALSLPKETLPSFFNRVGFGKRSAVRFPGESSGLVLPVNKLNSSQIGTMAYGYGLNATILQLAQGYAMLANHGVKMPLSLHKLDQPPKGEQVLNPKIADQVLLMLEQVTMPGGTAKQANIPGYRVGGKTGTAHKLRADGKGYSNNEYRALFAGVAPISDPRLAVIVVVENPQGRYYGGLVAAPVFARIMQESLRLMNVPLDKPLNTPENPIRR
How it was run: (§1)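 Purified PBP was preincubated with inhibitor (E. coli PBP3 1.5 μM, 30 min; P. aeruginosa PBP3 0.75 μM, A. baumannii PBP3 0.2 μM and PBP1a 1 μM, 15 min), then Bocillin-FL (0.1 μM; 0.05 μM for PBP1a) added and FP read up to 60 min. EC50 = 50% loss of bound probe.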

N. gonorrhoeae WHO L = test: Liquid broth MIC in Fastidious broth; conditions: Neisseria gonorrhoeae
[2] = molecular target: T2, PBP1a from Acinetobacter baumannii (ATCC 19606) (Acinetobacter baumannii, UniProt A0ABX6CK30); test: Bocillin-FL fluorescence polarization competition binding, A. baumannii PBP1a; conditions: fluorescence polarization competition binding assay using Bocillin-FL; read-out: A. baumannii PBP1a Potency
T2 sequence (A0ABX6CK30 1-851): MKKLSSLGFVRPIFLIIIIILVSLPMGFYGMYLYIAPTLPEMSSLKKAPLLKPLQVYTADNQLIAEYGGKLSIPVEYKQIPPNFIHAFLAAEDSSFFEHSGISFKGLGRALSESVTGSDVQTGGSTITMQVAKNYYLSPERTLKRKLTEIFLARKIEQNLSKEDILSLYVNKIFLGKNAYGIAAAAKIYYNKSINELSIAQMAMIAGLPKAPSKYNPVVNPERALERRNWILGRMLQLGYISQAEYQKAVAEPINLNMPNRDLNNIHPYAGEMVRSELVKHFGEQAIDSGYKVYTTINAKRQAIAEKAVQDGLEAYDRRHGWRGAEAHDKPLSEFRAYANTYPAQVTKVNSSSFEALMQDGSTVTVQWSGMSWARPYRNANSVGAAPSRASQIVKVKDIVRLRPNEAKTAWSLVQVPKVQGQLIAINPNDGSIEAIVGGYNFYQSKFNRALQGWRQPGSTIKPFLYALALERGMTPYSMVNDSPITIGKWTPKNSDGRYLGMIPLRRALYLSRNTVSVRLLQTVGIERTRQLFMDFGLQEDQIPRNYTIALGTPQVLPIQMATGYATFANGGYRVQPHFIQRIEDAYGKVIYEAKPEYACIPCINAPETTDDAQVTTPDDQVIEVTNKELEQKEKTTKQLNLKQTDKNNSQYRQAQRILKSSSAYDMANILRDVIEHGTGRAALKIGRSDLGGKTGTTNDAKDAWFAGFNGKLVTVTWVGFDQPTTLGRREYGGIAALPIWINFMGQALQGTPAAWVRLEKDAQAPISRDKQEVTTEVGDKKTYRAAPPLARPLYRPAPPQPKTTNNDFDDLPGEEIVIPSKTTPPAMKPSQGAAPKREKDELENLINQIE
How it was run: as §1

[3] = read-out: Minimum Inhibitory Concentration (MIC), N. gonorrhoeae WHO L
[4] = read-out: Minimum Inhibitory Concentration, WHO L

Compound | IC50 [1] | MIC (N. gonorrhoeae WHO L; [3]) | IC50 [2] | MIC (N. gonorrhoeae WHO L; [4])
CN(CCN1CCN(C(=O)NC(C(=O)N[C@H]2Cc3ccc(F)c(C(=O)O)c3OB2O)c2cc(F)c(O)c(O)c2Cl)C(=O)C1=O)S(=O)(=O)c1cccc(C(N)=O)c1 (stereo partly drawn) [Example 224, (3R)-3-(2-(4-(2-((3-carbamoyl-N-methylphenyl)sulfonamido)ethyl)-2,3-dioxopiperazine-1-carboxamido)-2-(2-chloro-5-fluoro-3,4-dihydroxyphenyl)acetamido)-7-fluoro-2-hydroxy-3,4-dihydro-2H-benzo[e][1,2]oxaborinine-8-carboxylic acid] | < 10 µM | > 64 µg/mL | > 250 µM | –
O=C(NCCCN1CCN(C(=O)NC(C(=O)N[C@H]2Cc3ccc(F)c(C(=O)O)c3OB2O)c2cc(F)c(O)c(O)c2Cl)C1=O)Nc1cccnc1 (stereo partly drawn) [Example 259, (3R)-3-(2-(2-chloro-5-fluoro-3,4-dihydroxyphenyl)-2-(2-oxo-3-(3-(3-(pyridin-3-yl)ureido)propyl)imidazolidine-1-carboxamido)acetamido)-7-fluoro-2-hydroxy-3,4-dihydro-2H-benzo[e][1,2]oxaborinine-8-carboxylic acid] | < 10 µM | – | > 250 µM | > 64 µg/mL
O=C(CN1CCN(C(=O)NC(C(=O)N[C@H]2Cc3ccc(F)c(C(=O)O)c3OB2O)c2cc(F)c(O)c(O)c2Cl)C(=O)C1=O)Nc1cccc(O)c1 (stereo partly drawn) [Example 231, (3R)-3-(2-(2-chloro-5-fluoro-3,4-dihydroxyphenyl)-2-(4-(2-((3-hydroxyphenyl)amino)-2-oxoethyl)-2,3-dioxopiperazine-1-carboxamido)acetamido)-7-fluoro-2-hydroxy-3,4-dihydro-2H-benzo[e][1,2]oxaborinine-8-carboxylic acid] | < 10 µM | > 64 µg/mL | > 250 µM | –
O=C(NCCCS(=O)(=O)N1CCN(C(=O)NC(C(=O)N[C@H]2Cc3ccc(F)c(C(=O)O)c3OB2O)c2cc(F)c(O)c(O)c2Cl)C1=O)c1ccccc1 (stereo partly drawn) [Example 268, (3R)-3-(2-(3-((3-benzamidopropyl)sulfonyl)-2-oxoimidazolidine-1-carboxamido)-2-(2-chloro-5-fluoro-3,4-dihydroxyphenyl)acetamido)-7-fluoro-2-hydroxy-3,4-dihydro-2H-benzo[e][1,2]oxaborinine-8-carboxylic acid] | < 10 µM | – | > 250 µM | > 64 µg/mL
O=C(NCCN1CCN(C(=O)NC(C(=O)N[C@H]2Cc3ccc(F)c(C(=O)O)c3OB2O)c2cc(F)c(O)c(O)c2Cl)C(=O)C1=O)Nc1cccc(O)c1 (stereo partly drawn) [Example 220, (3R)-3-(2-(2-chloro-5-fluoro-3,4-dihydroxyphenyl)-2-(4-(2-(3-(3-hydroxyphenyl)ureido)ethyl)-2,3-dioxopiperazine-1-carboxamido)acetamido)-7-fluoro-2-hydroxy-3,4-dihydro-2H-benzo[e][1,2]oxaborinine-8-carboxylic acid] | < 10 µM | > 64 µg/mL | > 250 µM | –
O=C(CN1CCN(C(=O)N[C@@H](C(=O)N[C@H]2Cc3ccc(F)c(C(=O)O)c3OB2O)c2cc(F)c(O)c(O)c2Cl)C(=O)C1=O)NCc1ccncc1 [Example 239, (R)-3-((R)-2-(2-chloro-5-fluoro-3,4-dihydroxyphenyl)-2-(2,3-dioxo-4-(2-oxo-2-((pyridin-4-ylmethyl)amino)ethyl)piperazine-1-carboxamido)acetamido)-7-fluoro-2-hydroxy-3,4-dihydro-2H-benzo[e][1,2]oxaborinine-8-carboxylic acid] | < 10 µM | > 64 µg/mL | > 250 µM | –
O=C(NCCN1CCN(C(=O)NC(C(=O)N[C@H]2Cc3ccc(F)c(C(=O)O)c3OB2O)c2cc(F)c(O)c(O)c2Cl)C(=O)C1=O)c1ccccc1 (stereo partly drawn) [Example 207, (3R)-3-(2-(4-(2-benzamidoethyl)-2,3-dioxopiperazine-1-carboxamido)-2-(2-chloro-5-fluoro-3,4-dihydroxyphenyl)acetamido)-7-fluoro-2-hydroxy-3,4-dihydro-2H-benzo[e][1,2]oxaborinine-8-carboxylic acid] | < 10 µM | > 64 µg/mL | > 250 µM | –
O=C(NCCCN1CCN(C(=O)NC(C(=O)N[C@H]2Cc3ccc(F)c(C(=O)O)c3OB2O)c2cc(F)c(O)c(O)c2Cl)C1=O)c1ccncc1 (stereo partly drawn) [Example 256, (3R)-3-(2-(2-chloro-5-fluoro-3,4-dihydroxyphenyl)-2-(3-(3-(isonicotinamido)propyl)-2-oxoimidazolidine-1-carboxamido)acetamido)-7-fluoro-2-hydroxy-3,4-dihydro-2H-benzo[e][1,2]oxaborinine-8-carboxylic acid] | < 10 µM | – | > 250 µM | > 64 µg/mL
O=C(O)c1c(F)ccc2c1OB(O)[C@@H](NC(=O)C(NC(=O)N1CCN(S(=O)(=O)CCNC(=O)[C@@H]3CCCN3)C1=O)c1cc(F)c(O)c(O)c1Cl)C2 (stereo partly drawn) [Example 265, (3R)-3-(2-(2-chloro-5-fluoro-3,4-dihydroxyphenyl)-2-(2-oxo-3-((2-((S)-pyrrolidine-2-carboxamido)ethyl)sulfonyl)imidazolidine-1-carboxamido)acetamido)-7-fluoro-2-hydroxy-3,4-dihydro-2H-benzo[e][1,2]oxaborinine-8-carboxylic acid] | < 10 µM | – | > 250 µM | > 64 µg/mL
O=C(NCCCS(=O)(=O)N1CCN(C(=O)N[C@H](C(=O)N[C@H]2Cc3ccc(F)c(C(=O)O)c3OB2O)c2cc(F)c(O)c(O)c2Cl)C1=O)c1cccc(O)c1 [Example 270, (R)-3-((S)-2-(2-chloro-5-fluoro-3,4-dihydroxyphenyl)-2-(3-((3-(3-hydroxybenzamido)propyl)sulfonyl)-2-oxoimidazolidine-1-carboxamido)acetamido)-7-fluoro-2-hydroxy-3,4-dihydro-2H-benzo[e][1,2]oxaborinine-8-carboxylic acid] | < 10 µM | – | > 250 µM | > 64 µg/mL
O=C(NCCCN1CCN(C(=O)N[C@@H](C(=O)N[C@H]2Cc3ccc(F)c(C(=O)O)c3OB2O)c2cc(F)c(O)c(O)c2Cl)C1=O)c1cccc(O)c1 [Example 255, (R)-3-((R)-2-(2-chloro-5-fluoro-3,4-dihydroxyphenyl)-2-(3-(3-(3-hydroxybenzamido)propyl)-2-oxoimidazolidine-1-carboxamido)acetamido)-7-fluoro-2-hydroxy-3,4-dihydro-2H-benzo[e][1,2]oxaborinine-8-carboxylic acid] | < 10 µM | – | > 250 µM | > 64 µg/mL
O=C(NCCCN1CCN(C(=O)N[C@H](C(=O)N[C@H]2Cc3ccc(F)c(C(=O)O)c3OB2O)c2cc(F)c(O)c(O)c2Cl)C1=O)c1ccccc1 [Example 252, (R)-3-((S)-2-(3-(3-benzamidopropyl)-2-oxoimidazolidine-1-carboxamido)-2-(2-chloro-5-fluoro-3,4-dihydroxyphenyl)acetamido)-7-fluoro-2-hydroxy-3,4-dihydro-2H-benzo[e][1,2]oxaborinine-8-carboxylic acid] | 50 to 250 µM | – | > 250 µM | > 64 µg/mL
O=C(NCCN1CCN(C(=O)NC(C(=O)N[C@H]2Cc3ccc(F)c(C(=O)O)c3OB2O)c2cc(F)c(O)c(O)c2Cl)C1=O)c1ccncc1 (stereo partly drawn) [Example 245, (3R)-3-(2-(2-chloro-5-fluoro-3,4-dihydroxyphenyl)-2-(3-(2-(isonicotinamido)ethyl)-2-oxoimidazolidine-1-carboxamido)acetamido)-7-fluoro-2-hydroxy-3,4-dihydro-2H-benzo[e][1,2]oxaborinine-8-carboxylic acid] | < 10 µM | > 64 µg/mL | > 250 µM | –
